Values quoted from earlier work as cited in patent US20100150868A1, “Methods of Individually Optimizing Treatment for an Inflammation Associated Disease” (Tel HaShomer Medical Research Infrastructure and Services …, priority 2005, published 2010).

System: TNF-α secretion of MOG stimulated PBMC
Details: in vitro, 10 μg/ml

Glatiramer acetate [Copaxone]
inhibitory effect on TNF-α producing cells compared with in-vivo experiments: same inhibitory effect
